Results from US11845724B2, “USP30 inhibitors and uses thereof” (Vincere Biosciences, Inc., priority 2019, dated 2023).

These compounds were tested against USP30 (Homo sapiens (Human), UniProt Q70CQ3) (assay: Dundee MALDI-TOF mass spectrometry assay (IC50)). Details: USP30 25 ng/μl, K48-linked diubiquitin 5.6 μM, avg, read-out: Dundee IC50 μM (avg in vitro MS assay).
Type: biochemical
Experimental: Compounds were tested in a MALDI-TOF assay based on the paper by Ritorto et al. (Ritorto et al. Screening of DUB activity and specificity by MALDI-TOF mass spectrometry. Nat. […] USP30 (25 ng/μl) tested against K48-linked diubiquitin (5.6 μM). USP30 was diluted in a buffer containing 40 mM Tris, 0.01% BSA, 1 mM DTT and K48 in 40 mM Tris, 0.01% BSA. The compounds were pre-incubated with the USP30 for 5 mins at room temp before the K48 dimer addition. The assay mixture was then incubated for 45 mins at room temp. The assay was stopped by the addition of TFA to a final concentration of 2% (v/v). […] Then 250 nl of these solutions were spotted onto an MTP AnchorChip 1,536 TF and this is analysed on the Bruker rapifleX MALDI-TOF.

Chain of USP30 (Q70CQ3 whole entry): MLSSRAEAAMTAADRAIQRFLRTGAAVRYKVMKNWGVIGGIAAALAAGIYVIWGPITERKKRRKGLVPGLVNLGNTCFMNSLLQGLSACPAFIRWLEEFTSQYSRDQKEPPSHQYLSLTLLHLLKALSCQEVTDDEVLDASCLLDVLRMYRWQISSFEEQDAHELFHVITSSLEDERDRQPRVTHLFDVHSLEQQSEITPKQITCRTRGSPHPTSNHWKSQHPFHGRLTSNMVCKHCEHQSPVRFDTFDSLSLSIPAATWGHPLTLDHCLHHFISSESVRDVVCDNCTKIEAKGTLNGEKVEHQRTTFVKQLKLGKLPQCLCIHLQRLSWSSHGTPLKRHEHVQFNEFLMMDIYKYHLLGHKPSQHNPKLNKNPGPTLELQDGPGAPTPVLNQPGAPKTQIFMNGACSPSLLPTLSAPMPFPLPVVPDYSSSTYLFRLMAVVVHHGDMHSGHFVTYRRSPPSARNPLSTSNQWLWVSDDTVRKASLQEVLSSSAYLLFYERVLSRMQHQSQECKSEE

| SMILES | IC50 |
| --- | --- |
| COc1cc(NC(=O)[C@H](Cc2ccccc2)NC(=O)c2ccc(F)cc2)ccc1S(=O)(=O)NC1COC1 [Compound I-147, (S)-4-fluoro-N-(1-(3-methoxy-4-(N-oxetan-3-ylsulfamoyl)phenylamino)-1-oxo-3-phenylpropan-2-yl)benzamide] | < 0.05 µM |
| O=C(N[C@@H](Cc1ccccc1)C(=O)Nc1ccc(S(=O)(=O)NC23CC(C2)C3)cc1)c1cccc(F)c1 [Compound I-95, (S)-N-(1-(4-(N-bicyclo[1.1.1]pentan-1-ylsulfamoyl)phenylamino)-1-oxo-3-phenylpropan-2-yl)-3-fluorobenzamide] | 0.05 to 1 µM |
| O=C(N[C@@H](Cc1ccccc1)C(=O)Nc1ccc(S(=O)(=O)NC2CC2)cc1)c1ccc(F)cc1 [Compound I-6, (S)-N-(1-(4-(N-cyclopropylsulfamoyl)phenylamino)-1-oxo-3-phenylpropan-2-yl)-4-fluorobenzamide] | < 0.05 µM |
| O=C(N[C@@H](Cc1ccccc1)C(=O)Nc1ccc(S(=O)(=O)NC2CCCCC2)cc1)c1ccc(F)cc1 [Compound I-31, (S)-N-(1-(4-(N-cyclohexylsulfamoyl)phenylamino)-1-oxo-3-phenylpropan-2-yl)-4-fluorobenzamide] | 0.05 to 1 µM |
| O=C(N[C@@H](Cc1ccccc1)C(=O)Nc1ccc(S(=O)(=O)NC2CCCC2)cc1)c1ccc(F)cc1 [Compound I-8, (S)-N-(1-(4-(N-cyclopentylsulfamoyl)phenylamino)-1-oxo-3-phenylpropan-2-yl)-4-fluorobenzamide] | < 0.05 µM |
| O=C(N[C@@H](Cc1ccccc1)C(=O)Nc1ccc(S(=O)(=O)NCC2CC2)cc1)c1ccc(F)cc1 [Compound I-9, (S)-N-(1-(4-(N-(cyclopropylmethyl)sulfamoyl)phenylamino)-1-oxo-3-phenylpropan-2-yl)-4-fluorobenzamide] | < 0.05 µM |
| CC(C)(C)NS(=O)(=O)c1ccc(NC(=O)[C@H](Cc2ccccc2)N2Cc3ccccc3C2=O)cc1 [Compound I-69, (S)-N-(4-(N-tert-butylsulfamoyl)phenyl)-2-(1-oxoisoindolin-2-yl)-3-phenylpropanamide] | 1 to 10 µM |
| O=C(N[C@@H](Cc1ccccc1)C(=O)Nc1ccc(S(=O)(=O)Nc2ccccc2)cc1)c1ccc(F)cc1 [Compound I-32, (S)-4-fluoro-N-(1-oxo-3-phenyl-1-(4-(N-phenylsulfamoyl)phenylamino)propan-2-yl)benzamide] | 0.05 to 1 µM |
| O=C(N[C@@H](Cc1ccccc1)C(=O)Nc1ccc(S(=O)(=O)NC2CCC2)cc1)c1ccc(F)cc1 [Compound I-7, (S)-N-(1-(4-(N-cyclobutylsulfamoyl)phenylamino)-1-oxo-3-phenylpropan-2-yl)-4-fluorobenzamide] | < 0.05 µM |
| CC(C)(C)NS(=O)(=O)c1ccc(NC(=O)C2Cc3ncccc3N2C(=O)c2ccc(F)cc2)cc1 (stereo not shown) [Compound I-54, N-(4-(N-tert-butylsulfamoyl)phenyl)-1-(4-fluorobenzoyl)-2,3-dihydro-1H-pyrrolo[3,2-b]pyridine-2-carboxamide] | > 1 µM |

Results, then the compound that gave them:

| IC50 | SMILES |
| --- | --- |
| < 0.05 µM | CC[C@@H](C)NS(=O)(=O)c1ccc(NC(=O)[C@H](Cc2ccccc2)NC(=O)c2ccc(F)cc2)cc1 [Compound I-12, N-((S)-1-((4-(N-((R)-sec-butyl)sulfamoyl)phenyl)amino)-1-oxo-3-phenylpropan-2-yl)-4-fluorobenzamide] |
| < 0.05 µM | C[C@@H](NS(=O)(=O)c1ccc(NC(=O)[C@H](Cc2ccccc2)NC(=O)c2ccc(F)cc2)cc1)C1CC1 [Compound I-67, N-((S)-1-(4-(N-((R)-1-cyclopropylethyl)sulfamoyl)phenylamino)-1-oxo-3-phenylpropan-2-yl)-4-fluorobenzamide] |
| < 0.05 µM | CC(C)(C)NS(=O)(=O)c1ccc(NC(=O)[C@H](Cc2ccccc2)NC(=O)c2ccc(F)cc2)cn1 [Compound I-62, (S)-N-(1-(6-(N-tert-butylsulfamoyl)pyridin-3-ylamino)-1-oxo-3-phenylpropan-2-yl)-4-fluorobenzamide] |
| < 0.05 µM | CC(C)(C)NS(=O)(=O)c1ccc(NC(=O)[C@H](Cc2ccccc2)NC(=O)c2ccc(F)cc2)nc1 [Compound I-61, (S)-N-(1-(5-(N-tert-butylsulfamoyl)pyridin-2-ylamino)-1-oxo-3-phenylpropan-2-yl)-4-fluorobenzamide] |
| 0.05 to 1 µM | CC(C)(C)NS(=O)(=O)c1ccc(NC(=O)[C@H](Cc2c[nH]c3ccccc23)NC(=O)c2ccc(F)cc2)cc1 [Compound I-1, (S)-N-(1-(4-(N-tert-butylsulfamoyl)phenylamino)-3-(1H-indol-3-yl)-1-oxopropan-2-yl)-4-fluorobenzamide] |
| < 0.05 µM | CCC(C)(C)NS(=O)(=O)c1ccc(NC(=O)[C@H](Cc2ccccc2)NC(=O)c2ccc(F)cc2)cc1 [Compound I-24, (S)-4-fluoro-N-(1-oxo-1-(4-(N-tert-pentylsulfamoyl)phenylamino)-3-phenylpropan-2-yl)benzamide] |
| 0.05 to 1 µM | CC(C)(C)CS(=O)(=O)c1ccc(NC(=O)[C@H](Cc2ccccc2)NC(=O)c2ccc(F)cc2)cc1 [Compound I-2, (S)-4-fluoro-N-(1-(4-(2,2-Dimethyl-propylsulfonyl)phenylamino)-1-oxo-3-phenylpropan-2-yl)benzamide] |
| 0.05 to 1 µM | CC(C)(C)NS(=O)(=O)c1ccc(NC(=O)[C@H](Cc2ccccc2)NC(=O)c2ccc(F)cc2)s1 [Compound I-63, (S)-N-(1-(5-(N-tert-butylsulfamoyl)thiophen-2-ylamino)-1-oxo-3-phenylpropan-2-yl)-4-fluorobenzamide] |
| > 10 µM | CC(C)(C)CS(=N)(=O)c1ccc(NC(=O)[C@H](Cc2ccccc2)NC(=O)c2ccc(F)cc2)cc1 (stereo partly drawn) [Compound I-3, N-((2S)-1-(4-(2,2-dimethylpropylsulfonimidoyl)phenylamino)-1-oxo-3-phenylpropan-2-yl)-4-fluorobenzamide] |

What follows are compounds tested against recombinant USP30 (amino acids 57-517 of the human sequence) (Homo sapiens (Human), UniProt Q70CQ3) (assay: In vitro USP30 biochemical assay (Ubiquitin-Rhodamine)). Details: USP30 IC50 μM (avg), Ubiquitin-Rhodamine substrate 25 nM, 1.5 nM recombinant USP30.
Chain of recombinant USP30 (amino acids 57-517 of the human sequence) (Q70CQ3 57-517): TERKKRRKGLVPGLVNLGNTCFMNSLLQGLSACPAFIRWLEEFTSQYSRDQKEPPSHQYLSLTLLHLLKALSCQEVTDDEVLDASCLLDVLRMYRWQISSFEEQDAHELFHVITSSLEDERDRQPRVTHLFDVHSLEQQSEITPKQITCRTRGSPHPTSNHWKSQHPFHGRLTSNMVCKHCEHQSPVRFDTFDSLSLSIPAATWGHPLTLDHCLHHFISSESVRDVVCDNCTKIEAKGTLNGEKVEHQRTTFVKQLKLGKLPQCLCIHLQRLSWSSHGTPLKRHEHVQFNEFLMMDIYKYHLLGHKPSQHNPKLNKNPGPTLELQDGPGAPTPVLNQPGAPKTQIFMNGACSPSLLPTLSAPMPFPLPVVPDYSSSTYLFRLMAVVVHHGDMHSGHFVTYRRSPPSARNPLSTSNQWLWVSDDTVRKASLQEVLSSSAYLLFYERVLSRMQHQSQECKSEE

| SMILES | IC50 |
| --- | --- |
| COc1cc(NC(=O)[C@H](Cc2ccccc2)NC(=O)c2ccc(F)cc2)ccc1S(=O)(=O)NC1COC1 [Compound I-147, (S)-4-fluoro-N-(1-(3-methoxy-4-(N-oxetan-3-ylsulfamoyl)phenylamino)-1-oxo-3-phenylpropan-2-yl)benzamide] | 0.05 to 1 µM |
| O=C(N[C@@H](Cc1ccccc1)C(=O)Nc1ccc(S(=O)(=O)NC23CC(C2)C3)cc1)c1cccc(F)c1 [Compound I-95, (S)-N-(1-(4-(N-bicyclo[1.1.1]pentan-1-ylsulfamoyl)phenylamino)-1-oxo-3-phenylpropan-2-yl)-3-fluorobenzamide] | 0.05 to 1 µM |
| O=C(N[C@@H](Cc1ccccc1)C(=O)Nc1ccc(S(=O)(=O)N[C@@H]2CCOC2)nc1)c1ccc(F)cc1 [Compound I-179, 4-fluoro-N-((S)-1-oxo-3-phenyl-1-(6-(N-((R)-tetrahydrofuran-3-yl)sulfamoyl)pyridin-3-ylamino)propan-2-yl)benzamide] | 0.05 to 1 µM |
| N#Cc1cc(NC(=O)[C@H](Cc2ccccc2)NC(=O)c2ccc(F)cc2)ccc1S(=O)(=O)NC12CC(C1)C2 [Compound I-166, (S)-N-(1-(4-(N-bicyclo[1.1.1]pentan-1-ylsulfamoyl)-3-cyanophenylamino)-1-oxo-3-phenylpropan-2-yl)-4-fluorobenzamide] | 0.05 to 1 µM |

Further lines, results first:

| IC50 | SMILES |
| --- | --- |
| 0.05 to 1 µM | COc1cc(NC(=O)[C@H](Cc2ccccc2)NC(=O)c2ccc(F)cc2)ccc1S(=O)(=O)NC(C)(C)C#N [Compound I-180, (S)-N-(1-(4-(N-(2-cyanopropan-2-yl)sulfamoyl)-3-methoxyphenylamino)-1-oxo-3-phenylpropan-2-yl)-4-fluorobenzamide] |
| 0.05 to 1 µM | C#CC(C)(C)NS(=O)(=O)c1ccc(NC(=O)[C@H](Cc2ccccc2)NC(=O)c2ccc(F)cc2)cn1 [Compound I-177, (S)-4-fluoro-N-(1-(6-(N-(2-methylbut-3-yn-2-yl)sulfamoyl)pyridin-3-ylamino)-1-oxo-3-phenylpropan-2-yl)benzamide] |
| 0.05 to 1 µM | O=C(N[C@@H](Cc1ccccc1)C(=O)Nc1ccc(S(=O)(=O)NCCO)nc1)c1ccc(F)cc1 [Compound I-110, (S)-4-fluoro-N-(1-(6-(N-(2-hydroxyethyl)sulfamoyl)pyridin-3-ylamino)-1-oxo-3-phenylpropan-2-yl)benzamide] |

Same assay, conditions: read-out: USP30 IC50 μM (avg), Ubiquitin-Rhodamine substrate 25 nM, 1.5 nM recombinant USP30

| SMILES | IC50 |
| --- | --- |
| CC(C)(CCN1CCOCC1)NS(=O)(=O)c1ccc(NC(=O)[C@H](Cc2ccccc2)NC(=O)c2ccc(F)cc2)cc1 [Compound I-163, (S)-4-fluoro-N-(1-(4-(N-(2-methyl-4-morpholinobutan-2-yl)sulfamoyl)phenylamino)-1-oxo-3-phenylpropan-2-yl)benzamide] | < 0.05 µM |
| COc1cc(NC(=O)[C@H](Cc2ccccc2)NC(=O)c2ccc(F)cc2)ccc1S(=O)(=O)N[C@@H]1CCOC1 [Compound I-183, 4-fluoro-N-((S)-1-(3-methoxy-4-(N-((R)-tetrahydrofuran-3-yl)sulfamoyl)phenylamino)-1-oxo-3-phenylpropan-2-yl)benzamide] | < 0.05 µM |
| O=C(N[C@@H](Cc1ccccc1)C(=O)Nc1ccc(S(=O)(=O)N[C@H]2CCOC2)nc1)c1ccc(F)cc1 [Compound I-178, 4-fluoro-N-((S)-1-oxo-3-phenyl-1-(6-(N-((S)-tetrahydrofuran-3-yl)sulfamoyl)pyridin-3-ylamino)propan-2-yl)benzamide] | < 0.05 µM |

Next, values leading:

| IC50 | SMILES |
| --- | --- |
| < 0.05 µM | C#CC(C)(C)NS(=O)(=O)c1ccc(NC(=O)[C@H](Cc2ccccc2)NC(=O)c2ccc(F)cc2)cc1 [Compound I-173, (S)-4-fluoro-N-(1-(4-(N-(2-methylbut-3-yn-2-yl)sulfamoyl)phenylamino)-1-oxo-3-phenylpropan-2-yl)benzamide] |
| < 0.05 µM | CC(C)(C)NS(=O)(=O)c1ccc(NC(=O)[C@H](Cc2ccccc2)NC(=O)c2ccc(F)cc2)cc1Cl [Compound I-168, (S)-N-(1-(4-(N-tert-butylsulfamoyl)-3-chlorophenylamino)-1-oxo-3-phenylpropan-2-yl)-4-fluorobenzamide] |
